How the values were obtained:
[1] = test system: kinases; conditions: other kinases inhibited; cited from earlier work
[2] = test system: breast tumor fragments; experiment: Expansion of T cells in vitro from breast tumor fragments treated with kinase inhibitors (Example 2); assay type: cell-based, human; conditions: first 20 days of culture, high doses IL-2, 12 h inhibitor treatment
Source text: The fragments were washed, placed in culture as previously described and 20 days later the number of T cells obtained were counted. Antibodies and multimers of MHC class I: antibodies specific for CD4, CD8, CD3 and CD28 were from Beckton Dikinson. Antibodies specific for PD-1 were from Affimetrix eBioscience (clone J105, PD-1 PerCP-eF710), anti-LAG-3 antibodies were from Enzo Life Science (clone 17B4, LAG-3-FITC), anti-CD137 antibodies were from Biolegend (clone 4B4-1, CD137-BV605). Fluorescently labelled Her2/neu MHC-classI multimers were from TCMetrix (Epalinges, Swizerland).

[3] = target: VEGFR-1 (Homo sapiens, UniProt P17948); conditions: cited from earlier work
[4] = target: TIE-2 (Homo sapiens, UniProt Q02763); conditions: read-out: IC 50 TIE-2; cited from earlier work
Sequence of TIE-2 (Q02763 23-1124, species assumed): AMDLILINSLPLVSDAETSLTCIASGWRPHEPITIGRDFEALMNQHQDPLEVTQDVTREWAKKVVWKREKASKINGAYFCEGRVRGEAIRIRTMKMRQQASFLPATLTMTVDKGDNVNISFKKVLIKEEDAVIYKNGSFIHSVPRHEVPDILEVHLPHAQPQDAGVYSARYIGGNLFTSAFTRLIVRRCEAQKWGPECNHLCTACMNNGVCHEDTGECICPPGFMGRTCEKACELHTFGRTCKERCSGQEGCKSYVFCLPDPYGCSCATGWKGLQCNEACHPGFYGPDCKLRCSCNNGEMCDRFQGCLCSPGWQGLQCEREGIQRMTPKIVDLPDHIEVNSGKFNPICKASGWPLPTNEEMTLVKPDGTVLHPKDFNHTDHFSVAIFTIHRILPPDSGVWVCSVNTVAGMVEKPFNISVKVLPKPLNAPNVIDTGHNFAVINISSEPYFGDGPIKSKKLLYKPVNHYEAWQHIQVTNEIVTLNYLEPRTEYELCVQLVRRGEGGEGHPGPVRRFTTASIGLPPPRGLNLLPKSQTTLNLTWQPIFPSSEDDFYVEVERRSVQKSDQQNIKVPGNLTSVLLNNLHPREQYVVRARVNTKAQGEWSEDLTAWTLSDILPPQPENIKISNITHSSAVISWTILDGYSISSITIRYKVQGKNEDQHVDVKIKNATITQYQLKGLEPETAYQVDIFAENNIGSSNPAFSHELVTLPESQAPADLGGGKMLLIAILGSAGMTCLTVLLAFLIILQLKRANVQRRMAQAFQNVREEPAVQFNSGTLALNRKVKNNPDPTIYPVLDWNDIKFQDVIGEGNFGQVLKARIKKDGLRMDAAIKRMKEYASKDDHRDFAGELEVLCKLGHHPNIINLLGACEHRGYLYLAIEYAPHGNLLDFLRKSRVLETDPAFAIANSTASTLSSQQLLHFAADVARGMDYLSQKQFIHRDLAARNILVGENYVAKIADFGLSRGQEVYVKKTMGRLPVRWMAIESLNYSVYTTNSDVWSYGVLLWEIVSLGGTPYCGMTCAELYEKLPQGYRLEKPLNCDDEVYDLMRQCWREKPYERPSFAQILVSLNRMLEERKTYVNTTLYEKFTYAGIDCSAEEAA

Sequence of VEGFR-1 (P17948 27-1338, species assumed): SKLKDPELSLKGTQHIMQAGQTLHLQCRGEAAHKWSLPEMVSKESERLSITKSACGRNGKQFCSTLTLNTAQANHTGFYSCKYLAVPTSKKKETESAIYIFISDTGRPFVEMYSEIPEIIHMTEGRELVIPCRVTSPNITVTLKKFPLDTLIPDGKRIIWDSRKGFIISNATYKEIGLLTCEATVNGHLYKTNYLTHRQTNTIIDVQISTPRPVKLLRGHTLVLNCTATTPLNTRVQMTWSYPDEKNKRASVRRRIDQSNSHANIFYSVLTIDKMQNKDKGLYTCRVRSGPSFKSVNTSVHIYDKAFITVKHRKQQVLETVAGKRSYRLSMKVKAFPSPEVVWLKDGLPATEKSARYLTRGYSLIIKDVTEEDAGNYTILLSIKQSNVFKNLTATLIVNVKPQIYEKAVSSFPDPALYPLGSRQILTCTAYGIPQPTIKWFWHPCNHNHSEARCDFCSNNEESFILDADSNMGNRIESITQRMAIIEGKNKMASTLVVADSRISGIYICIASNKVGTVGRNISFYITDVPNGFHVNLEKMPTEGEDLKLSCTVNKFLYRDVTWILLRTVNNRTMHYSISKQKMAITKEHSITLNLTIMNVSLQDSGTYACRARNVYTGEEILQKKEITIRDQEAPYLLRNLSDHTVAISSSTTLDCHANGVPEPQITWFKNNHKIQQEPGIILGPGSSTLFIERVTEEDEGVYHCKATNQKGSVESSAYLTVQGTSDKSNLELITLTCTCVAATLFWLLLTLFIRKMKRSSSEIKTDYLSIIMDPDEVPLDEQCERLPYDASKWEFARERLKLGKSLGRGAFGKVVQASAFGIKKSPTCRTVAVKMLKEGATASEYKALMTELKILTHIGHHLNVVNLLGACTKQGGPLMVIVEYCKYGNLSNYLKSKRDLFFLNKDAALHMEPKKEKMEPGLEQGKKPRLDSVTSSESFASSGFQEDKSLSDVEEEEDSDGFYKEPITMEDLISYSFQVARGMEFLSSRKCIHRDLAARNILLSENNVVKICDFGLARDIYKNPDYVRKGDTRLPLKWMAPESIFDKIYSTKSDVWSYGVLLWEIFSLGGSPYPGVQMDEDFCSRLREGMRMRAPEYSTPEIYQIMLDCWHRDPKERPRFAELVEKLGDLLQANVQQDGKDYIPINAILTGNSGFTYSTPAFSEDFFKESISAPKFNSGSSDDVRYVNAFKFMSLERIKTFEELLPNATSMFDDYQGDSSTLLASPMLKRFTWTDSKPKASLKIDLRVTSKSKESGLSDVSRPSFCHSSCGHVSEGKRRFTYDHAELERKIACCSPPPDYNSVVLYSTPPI

SMILES | Additional inhibition reported [1] | IC50 [4] | also measured
COc1ccc2cc(-c3[nH]c(-c4ccc([S+](C)[O-])cc4)nc3-c3ccncc3)ccc2c1 (centres unmarked) [SB633825, 4-(5-(6-methoxynaphthalen-2-yl)-2-(4-(methylsulfinyl)phenyl)-1H-imidazol-4-yl)pyridine] | p38, PDGFR1 | – | Number of T cells expanded per 1 mm3 of breast tumor tissue [2]: more than one million
Clc1ccc(Nc2nnc(Cc3ccncc3)c3ccccc23)cc1 [PTK787, Vatalanib] | c-Kit, PDGFR | – | –
COc1cc2nccc(Oc3ccc(NC(=O)Nc4cc(C)on4)c(Cl)c3)c2cc1OC [Tivozanib] | PDGFR, c-Kit | – | –
CNC(=O)c1cc(Oc2ccc(NC(=O)Nc3cc(C(C)(C)C)nn3-c3ccc4ncccc4c3)c(F)c2)ccn1 [Rebastinib (DCC-2036), Rebastinib] | – | – | IC50 [3]: 0.012 µM
O=C(Nc1cc(Oc2cc(F)c(NC(=O)C3(C(=O)Nc4ccc(F)cc4)CC3)cc2F)ccn1)C1CC1 [Altiratinib (DCC-2701), Altiratinib] | Met | 0.002 µM | –
Cc1ccc(OC(=O)N(CC(=O)N[C@@H](C)C2CCCCC2)Cc2ccc(-c3cncc(C(=O)O)c3)cc2)cc1 [Compound 7, 5-[4-[[[2-[[(1S)-1-Cyclohexylethyl]amino]-2-oxoethyl][(4methylphenoxy)carbonyl]amino]methyl]phenyl]-3-pyridinecarboxylic acid] | – | 0.3 µM | –

Source: US10858626B2, “Adoptive immunotherapy for treating cancer” (UNIVERSITÉ DE LAUSANNE, priority 2014, dated 2020)
